Experimental data from patent publication US8106039B2, “Metal complex phosphatidyl-inositol-3-kinase inhibitors” (The Trustees Of The University Of Pennsylvania, priority 2008, dated 2012).

What was measured:
[1] = system: 1205Lu melanoma cell line; experiment: Cell proliferation (MTT) assay; type: cell-based, human; conditions: increasing concentrations, 72 hours, FIG. 4B
Method: Cell Proliferation (MTT) Assay. Cells were plated into a 96-well plate at a density of 2.5×10^4 cells per ml and left to grow overnight. Cells were treated with increasing concentrations of E5E1 (0.03-30 μM), […] or LY 294002 (Calbiochem, San Diego, Calif.) (0.01-30 μM) in triplicate. In each instance cells were grown for 72 hours before being treated with 20 μl of MTT for 3 hours (Sigma). After this time, the media was rapidly removed and the MTT crystals were solubilized using DMSO. The resulting absorbance was read in a plate reader at 560 nm. Absorbance readings were subtracted from the value of blank wells, the reduction in cell growth was calculated as a percentage of control absorbance in the absence of any drug.

[2] = system: melanoma cells grown as 3D collagen-implanted spheroids; experiment: 3D spheroid growth / invasion; type: cell-based, human; conditions: 30 μM; 72 hours; FIG. 4C
Method: 3D Spheroid Growth. Melanoma spheroids were prepared using the liquid overlay method. Briefly, […] of melanoma cells (25,000 cells per ml) were added to a 96-well plate coated with 1.5% agar (Difco, Sparks MD). Plates were left to incubate for 72 hours, by which time cells had organized into 3D spheroids. Spheroids were then harvested using a P1000 pipette. The media was removed and the spheroids were implanted into a gel of bovine collagen I containing EMEM, L-glutamine and 2% FBS. Normal 2% melanoma media was overlaid on top of the solidified collagen. Spheroids were treated with either E5E1 (10-30 μM), or E5E2 (10-30 μM), before being left to grow for 72 hours. Spheroids were then washed twice in PBS before being treated with calcein-AM, ethidium bromide (Molecular Probes, Eugene, Oreg.) for 1 hour at 37° C., according to the manufacturer's instruction. After this time, pictures of the invading spheroids were taken using a Nikon-300 inverted fluorescence microscope.

[3] = biological target: T1, human PI3Kγ catalytic domain (Homo sapiens, UniProt P48736); experiment: PI3K Kinase-Glo assay; type: biochemical; conditions: for IC50: 1.4 pmoles PI3K, FIG. 3A, read-out: IC50 PI3Kγ inhibition
T1 construct: made in house; host or cells: baculovirus expression (virus obtained from the MRC, United Kingdom)
Method: PI3K Kinase-Glo Assay. Recombinantly expressed human PI3Kγ catalytic domain was preincubated with various concentration of inhibitors with a final DMSO concentration of 2% in reaction buffer (20 mM Tris pH 7.5, 100 mM NaCl, 10 mM MgCl2) for 1 hour at room temperature before this mixture was added to a solution of 0.1 mg/mL D-myo-Phosphatidylinositol 4,5-biphosphate (PtdIns (4,5)P2, Echelon Biosciences) and 10 μM ATP. 14 pmoles PI3K was used in compounds DW12, DW12Me, EAd125 comparison and 1.4 pmoles PI3K was used for compounds E5, E5E2, E5E1 measurements. The kinase reaction was carried out in a 50 μL final volume in a 96-well microtiter plate at 37° C. for 3 hours before 50 μL Kinase-Glo® (Promega) developing solution was added into the mixture to generate a luminescence signal. The signal was recorded using the PerkinElmer Wallac 1420 luminometer using a luminescence filter. Data were processed and IC50 values were derived from using 2% DMSO and with no kinase as controls and a sigmoidal dose response curve fitting by GraphPad Prism.

[4] = system: phospho-AKT in a melanoma cell line; experiment: Western blot analysis of phospho-AKT in melanoma cells; type: cell-based, human; conditions: FIG. 4A
From the text: Western Blot Analysis. Proteins were extracted and blotted for as described in (41). […] Antibodies to phospho-AKT and total AKT were from Cell Signaling Technology, (Beverly, Mass.). The monoclonal antibody to β-actin was from Sigma.

BRAF^WT = BRAF^WT (Homo sapiens, UniProt P15056); experiment: BRAF kinase assay (wild type); type: biochemical
Method: (§1) BRAF kinase assay—Recombinantly expressed GST-MEK diluted in TTBS buffer (20 mM Tris pH 7.5, 150 mM NaCl, 0.05% TWEEN-20) to 50 μg/mL in a volume of 100 μL was bound to the wells of a 96-well glutathione coated plate (Pierce Biotechnology). 1 μL of compound with 2× serial dilutions in a 100% DMSO stock solution were added to a mixture of 50 μL of a buffer containing 50 mM HEPES pH 7.0 with 0.7 pmoles of BRAF kinase. This mixture was incubated at room temperature for 1 hour before it was added into the GST-MEK bound wells of the 96-well plate. An additional 50 μL of phosphorylation buffer (50 mM HEPES pH 7.0, 200 mM NaCl, 10 mM MgCl2, 200 μM ATP) was added into the well mixture to start the kinase reaction at 37° C. for 30 min with intermittent shaking. The kinase reaction was stopped by extensive washing with TTBS buffer and a 1:5000 dilution of Anti-phospho-MEK1 (Ser218/222)/MEK2 (Ser222/226) monoclonal antibody (Millipore) in TTBS was subsequently added into the wells and incubated for 1 hour with shaking. Goat Anti-Rabbit IgG (H+L)-HRP Conjugate (BioRad Laboratories) in a 1:5000 dilution was added into the wells to incubate at room temperature with shaking. Finally, the SuperSignal ELISA Pico chemiluminescent substrate (Pierce Biotechnology) was added into the wells. The luminescence signal was recorded with a luminescence filter using a Wallac 1420 luminometer (PerkinElmer).

MST1 = biological target: T2, MST1 (Homo sapiens, UniProt Q13043); experiment: MST1 kinase assay; type: biochemical; conditions: inhibitor concentration of 4 μM; FIG. 3B
T2 sequence (Q13043 1-487): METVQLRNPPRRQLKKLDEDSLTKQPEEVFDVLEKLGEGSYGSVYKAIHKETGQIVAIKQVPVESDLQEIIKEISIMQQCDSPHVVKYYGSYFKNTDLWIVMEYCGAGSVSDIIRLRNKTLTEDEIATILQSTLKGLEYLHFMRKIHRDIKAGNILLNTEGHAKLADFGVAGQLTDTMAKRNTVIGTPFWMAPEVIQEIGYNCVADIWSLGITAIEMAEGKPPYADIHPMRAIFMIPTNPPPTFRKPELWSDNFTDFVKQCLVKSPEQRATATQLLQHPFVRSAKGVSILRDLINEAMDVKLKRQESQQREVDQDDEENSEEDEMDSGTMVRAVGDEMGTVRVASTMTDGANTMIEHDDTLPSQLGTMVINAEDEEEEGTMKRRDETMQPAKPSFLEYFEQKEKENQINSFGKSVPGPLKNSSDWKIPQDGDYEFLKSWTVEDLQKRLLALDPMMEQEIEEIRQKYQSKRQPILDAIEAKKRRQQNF
Method: MST1 kinase assay—Kinase assays were performed using labeled γ-P^32 ATP and the incorporation of labeled phosphate onto the substrate FOXO was monitored. Kinase assays were performed using kinase buffer containing 10 mM Tris pH 7.5, 10 mM MgCl2, 1 mM dithiothreitol (DTT), 1 mM phenylmethylsulfonyl fluoride (PMSF) and a cocktail containing phosphatase inhibitor. 5 μCi of labeled γ-P^32 ATP and a final concentration of 200 μM of ATP were used for each reaction. 10 nM of the enzyme was pre-incubated for 30 min with various concentrations of inhibitor and an equivalent amount of DMSO was used as a control. After 30 min of incubation of the enzyme with the inhibitor, 1 μg of substrate was added. The reaction was initiated by addition of ATP. All reactions were incubated at 37° C. for 30 min. and then stopped with SDS gel-loading dye; subsequently samples were heated for 3 min and loaded onto a 16% Tris-glycine gel (Novagen). The bands were visualized using high sensitivity Kodak film and the results were quantified using the software ImageJ.

BRAF^V600E = BRAF^V600E (Homo sapiens, UniProt P15056, V600E); experiment: BRAF kinase assay (V600E); type: biochemical; conditions: inhibitor concentration of 4 μM; FIG. 3B
Method: as §1

[5] = biological target: BRAF mutants (Leu513 mutated to valine and alanine); experiment: BRAF kinase assay with site directed mutants; type: biochemical, human; conditions: FIG. 6B
Method: as §1, with “(PerkinElmer). […]” for “(PerkinElmer).”

PAK1 = PAK1 (Homo sapiens, UniProt Q13153); experiment: PAK1 kinase assay; type: biochemical; conditions: inhibitor concentration of 4 μM; FIG. 3B
Method: PAK1 kinase assay—Kinase assays were performed using labeled γ-P^32 ATP and the incorporation of labeled phosphate onto the myelin basic protein (MBP) substrate was monitored. Different concentrations of compound inhibitor were incubated with 0.1 nM PAK1 kinase in 20 mM MOPS pH 7, 30 mM MgCl2, 1 mM EDTA, 0.8 μg/μL bovine serum albumin, 5% DMSO (resulting from the inhibitor stock solution), in the presence of 25 μg of MBP substrate for 20 minutes. Reactions were initiated by adding ATP to a final concentration of 1 μM including 0.2 μCi/μL γ-^32P ATP to a final volume of 25 μL. The reactions were terminated by spotting 17.5 μL onto a circular P81 phosphocellulose paper (diameter 2.1 cm), followed by washing three times with 0.75% phosphoric acid and one time with acetone. The dried P81 papers were transferred to scintillation vials and 4 ml of scintillation cocktail was added. The counts per minute (CPM) were measured with a scintillation counter and the enzyme activity in the presence of the inhibitor was calculated as a percentage of the control sample corrected by the background.

T1 sequence (P48736 144-1102 limits assumed): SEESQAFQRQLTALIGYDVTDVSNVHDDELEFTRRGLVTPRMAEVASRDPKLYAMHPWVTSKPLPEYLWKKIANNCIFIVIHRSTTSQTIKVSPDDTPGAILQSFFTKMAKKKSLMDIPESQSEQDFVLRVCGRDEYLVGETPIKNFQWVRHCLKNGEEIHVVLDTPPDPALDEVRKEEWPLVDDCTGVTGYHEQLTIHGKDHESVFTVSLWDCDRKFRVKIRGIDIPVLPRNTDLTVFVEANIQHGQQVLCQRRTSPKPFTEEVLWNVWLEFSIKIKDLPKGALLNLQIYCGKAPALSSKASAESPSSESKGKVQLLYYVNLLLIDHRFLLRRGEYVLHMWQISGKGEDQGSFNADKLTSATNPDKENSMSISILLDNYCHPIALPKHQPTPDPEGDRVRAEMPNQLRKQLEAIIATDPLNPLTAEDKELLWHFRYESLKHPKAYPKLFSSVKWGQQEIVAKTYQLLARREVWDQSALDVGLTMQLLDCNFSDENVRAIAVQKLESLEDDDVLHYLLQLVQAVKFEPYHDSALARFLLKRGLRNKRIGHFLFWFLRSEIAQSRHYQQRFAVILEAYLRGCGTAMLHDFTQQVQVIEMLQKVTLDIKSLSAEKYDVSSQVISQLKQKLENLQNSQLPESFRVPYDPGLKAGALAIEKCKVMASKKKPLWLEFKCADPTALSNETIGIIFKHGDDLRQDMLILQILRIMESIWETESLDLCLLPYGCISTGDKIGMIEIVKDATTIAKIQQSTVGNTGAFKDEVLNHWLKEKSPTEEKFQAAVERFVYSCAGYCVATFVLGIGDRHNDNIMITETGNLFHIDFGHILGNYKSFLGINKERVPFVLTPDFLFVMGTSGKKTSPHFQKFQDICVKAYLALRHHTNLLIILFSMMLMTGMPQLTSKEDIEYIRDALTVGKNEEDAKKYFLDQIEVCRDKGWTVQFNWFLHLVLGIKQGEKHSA
Sequence of BRAF^WT (P15056 whole entry): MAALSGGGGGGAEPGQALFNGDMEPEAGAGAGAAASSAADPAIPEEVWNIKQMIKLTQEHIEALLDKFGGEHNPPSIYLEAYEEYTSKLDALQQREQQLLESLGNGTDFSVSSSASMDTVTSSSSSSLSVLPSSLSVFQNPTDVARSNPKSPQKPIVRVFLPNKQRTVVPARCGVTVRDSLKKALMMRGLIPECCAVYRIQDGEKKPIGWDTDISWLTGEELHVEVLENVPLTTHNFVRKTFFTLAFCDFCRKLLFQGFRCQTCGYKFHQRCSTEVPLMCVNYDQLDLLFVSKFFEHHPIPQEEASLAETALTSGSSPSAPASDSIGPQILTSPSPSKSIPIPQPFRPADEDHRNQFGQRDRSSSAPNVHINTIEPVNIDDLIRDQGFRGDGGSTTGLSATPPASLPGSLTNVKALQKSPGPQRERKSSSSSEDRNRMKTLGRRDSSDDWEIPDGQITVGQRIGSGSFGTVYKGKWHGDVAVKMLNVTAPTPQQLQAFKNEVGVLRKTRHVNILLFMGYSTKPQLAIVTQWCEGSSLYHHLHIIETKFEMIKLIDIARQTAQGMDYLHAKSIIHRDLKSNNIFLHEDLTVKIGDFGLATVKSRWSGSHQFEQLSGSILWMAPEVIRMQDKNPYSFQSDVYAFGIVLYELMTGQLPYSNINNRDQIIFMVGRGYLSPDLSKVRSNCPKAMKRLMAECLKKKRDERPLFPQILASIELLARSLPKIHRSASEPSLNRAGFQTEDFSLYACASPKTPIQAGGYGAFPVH
Sequence of BRAF^V600E (P15056 whole entry V600E): as the sequence (P15056 whole entry) above, with V600E counted along it
Sequence of PAK1 (Q13153 whole entry): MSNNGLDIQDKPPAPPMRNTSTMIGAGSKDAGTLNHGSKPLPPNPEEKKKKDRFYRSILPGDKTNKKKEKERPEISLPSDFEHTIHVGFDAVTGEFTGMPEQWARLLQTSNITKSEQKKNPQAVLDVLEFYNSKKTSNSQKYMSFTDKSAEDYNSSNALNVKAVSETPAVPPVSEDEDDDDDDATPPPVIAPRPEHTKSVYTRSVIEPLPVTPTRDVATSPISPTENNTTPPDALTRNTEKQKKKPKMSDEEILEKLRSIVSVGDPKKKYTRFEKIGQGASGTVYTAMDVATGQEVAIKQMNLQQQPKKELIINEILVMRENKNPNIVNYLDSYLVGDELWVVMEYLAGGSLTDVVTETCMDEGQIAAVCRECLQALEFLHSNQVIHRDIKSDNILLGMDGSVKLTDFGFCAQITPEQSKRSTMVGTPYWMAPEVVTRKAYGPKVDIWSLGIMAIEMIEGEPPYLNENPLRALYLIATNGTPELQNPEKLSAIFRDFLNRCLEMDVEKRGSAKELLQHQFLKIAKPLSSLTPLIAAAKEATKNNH

| IC50 [3] [nM] | inhibition of BRAF^WT (BRAF^WT; inhibitor concentration of 4 μM, FIG. 3B) | inhibition against wild-type BRAF (BRAF^WT; inhibitor concentration of 10 μM, FIG. 6B) | PI3K inhibition / inhibitory potency (in words) ([3]; comparison among the inhibitors, FIG. 2C, FIG. 9) | inhibition of MST1 (MST1) | inhibition of BRAF^V600E (BRAF^V600E) | IC50 [5] [nM] | inhibition of PAK1 (PAK1) | Compound | cell proliferation (MTT) [1] | invasion of melanoma cells from 3D spheroids [2] | block of constitutive activity of AKT (phospho-AKT) [4] |
| --- | --- | --- | --- | --- | --- | --- | --- | --- | --- | --- | --- |
| 41 |  |  |  |  |  |  |  | CN1C(=O)c2c(c3c4cc(O)ccc4[n]4c3c3c2cc(F)c[n+]3[Ru-2]42356([C]#[O+])[CH]4[CH]2[CH]3[C]5(C(=O)NC(C)(CO)CO)[CH]46)C1=O (single isomer, unassigned) [Compound E5E1] | inhibition of cell proliferation | completely blocked | block the constitutive activity of AKT in a concentration dependent manner |
| 39 | did not show appreciable inhibition | no detectable inhibition | potent | did not show appreciable inhibition | did not show appreciable inhibition | ~10000 | did not show appreciable inhibition | CN1C(=O)c2c(c3c4cc(O)ccc4[n]4c3c3c2cc(F)c[n+]3[Ru-2]42356([C]#[O+])[CH]4[CH]2[CH]3[C]5(C(=O)NC(C)(CO)CO)[CH]46)C1=O (single isomer, unassigned) [Compound E5E2] |  |  |  |
|  |  |  |  |  |  |  |  | O=c1cc(N2CCOCC2)oc2c(-c3ccccc3)cccc12 [LY294002, 2-(4-morpholinyl)-8-phenyl-4H-1-benzopyran-4-one, reference compound] | inhibition of cell proliferation |  |  |
